Test results from patent US4214095A, “Chlorobenzyl phenoxy alkoxylates” (Siegfried Aktiengesellschaft, priority 1979, dated 1980).
Counter-ions that a name gives are not always drawn. Like-named read-outs stand apart in the source and are kept apart here.

What was measured:
[1] = Acute oral toxicity (LD50) in mice; format: in vivo; details: mouse, in vivo
Experimental: (§1) The compounds of Examples I to VIII were tested to evaluate their pharmacological effectiveness. Specifically, their toxicity (LD50), cholesterol-lowering effectiveness (E1 D25) and their liver weight increasing activity (E2 D25) were tested on animals according to standard methods.
(§2) At least three different doses were tested for each LD50 value given and 10 animals were used for testing of each dose; five test animals were kept in one standard "Macrolon" cage. The test substance was administered as a suspension in aqueous (3-5% by weight) Gum Arabic via a probe into the stomach in quantities of 10 ml of the suspension per kilogram body weight. As is conventional, LD50 is that dose of the test substance in mg/kg body weight which causes death of 50% of the test animals within the observation period. Higher LD50 values indicate lower toxicity and vice versa.

[2] = system: cholesterol level in the blood serum; test: Cholesterol-lowering effectiveness (E1 D25) in rats; format: in vivo, male Whistar rats; details: for ED25: Rattus norvegicus, male Whistar rats, oral, daily, two weeks (5 + 5 days), vs control, read-out: E1 D25 (dose causing 25% reduction of average serum cholesterol level); for cholesterol lowering effectiveness (in words): conclusion from Table I
Experimental: as §1
(B) The effective dose E1 D25 is the amount of test substance in milligram per kilogram body weight of the test animals (male Whistar rats, 100-200 g body weight, eight to ten animals per dosis) that causes a 25% by weight reduction of the average cholesterol level in the blood serum of test animals that had received the test substance, compared with the cholesterol level in the blood serum of the control group. The test substances were administered orally via a probe in the manner set forth above for the LD50 toxicity, i.e. as suspension in aqueous Gum Arabic. Each test animal was administered daily with 10 ml of the suspension per kilogram body weight. The animals of the control group were administered daily with each 10 ml of the aqueous Gum Arabic per kilogram of body weight without the test substance. The daily dose was administered for 5 subsequent days, resumed after a two-day week-end interval and continued for 5 additional days. After a total test period of two weeks, both the test and the control animals were sacrificed and the blood serum was recovered from the bodies for analysis.
Cholesterol analysis of the serum recovered was carried out according to the standard method of M. Richterich (cf. Monography by M. Richterich, "Klinische Chemie," Verlag Karger, Basel/New York, 1965, p. 232) and the results were evaluated by means of a cholesterol level/dose diagram. The E1 D25 values were taken from the diagram thus obtained. Lower E1 D25 values indicate higher activity, and vice versa.

mice [3] = test: Acute oral toxicity (LD50) in mice; format: in vivo; details: conclusion from Table I
Experimental: as §1, §2

[4] = system: liver weight/body weight ratio (relative liver weight); set-up: species or system male Whistar rats; details: rat, in vivo
Experimental: as §1
(C) The effective dose E2 D25 is the amount of test substance in milligram per kilogram body weight of the test animals (male Whistar rats, 100-200 g body weight, eight to ten animals per dose) that causes a 25% increase of the liver weight/body weight ratio (relative liver weight) of test animals that had received that test substance, compared with the liver weight/body weight ratio of the control group. Administration was effected substantially in the manner described above for E1 D25. The relative liver weight was determined from the bodies of the sacrificed animals and the control animals. The actual increase of the relative liver weight was evaluated graphically and the E2 D25 was obtained by interpolation from the graph.

mice [5] = details: background section; cited from earlier work
[6] = mice, single oral dose, 7 days observation or longer, read-out: LD50

Q: What does the source list for `CCOC(=O)C(C)Oc1ccccc1Cc1ccc(Cl)cc1` (stereo not drawn) [Example VII]?
A: LD50 at 168 h ([1]; po, read-out: LD50): > 3000 mg/kg; ED25 [2]: 100 mg/kg; cholesterol lowering effectiveness (in words) [2]: reduced cholesterol lowering effect

Q: Which LD50 at 168 h ([1]; po, read-out: LD50) does the source give for `CCC(C)(Oc1ccccc1Cc1ccc(Cl)cc1)C(=O)OCc1cccnc1` (racemic) [Example III, D,L-2-methyl-2-[o-(p'-chlorobenzyl)-phenoxy]-butyric acid-(3-oxymethyl-pyridine)-ester hydrochloride] here?
A: The LD50 at 168 h was greater than 3000 mg/kg.

Q: What about the ED25 [2] of the same molecule?
A: The ED25 was roughly 10 mg/kg.

Q: For `CCCC(C)(Oc1ccccc1Cc1ccc(Cl)cc1)C(=O)OCC` (racemic) [Example II, ethyl D,L-2-methyl-2-[o-(p'-chlorobenzyl)-phenoxy]-valerate], which LD50 at 168 h ([1]; po, read-out: LD50) is on record?
A: The LD50 at 168 h was greater than 10000 mg/kg.

Q: What about the ED25 [2] of the same molecule?
A: Its ED25 is roughly 40 mg/kg.

Q: What does the source list for `CCOC(=O)C(C)(CC)Oc1ccccc1Cc1ccc(Cl)cc1` (racemic) [Example I, ethyl D,L-2-methyl-2-[o-(p'-chlorobenzyl)-phenoxy]butyrate]?
A: LD50 at 168 h ([1]; po, read-out: LD50): > 10000 mg/kg; toxicity (in words) (mice [3]): low toxicity; liver enlargement activities (in words) [4]: low or very low liver enlargement activities; ED25 [2]: ~10 mg/kg; cholesterol lowering effectiveness (in words) [2]: high cholesterol lowering effectiveness

Q: What does the source list for `CCOC(=O)C(C)(C)Oc1ccccc1Cc1ccc(Cl)cc1` [Example IV, ethyl 2-methyl-2-[o-(p'-chlorobenzyl)-phenoxy]propionate]?
A: LD50 at 168 h ([1]; po, read-out: LD50): > 10000 mg/kg; ED25 [2]: ~90 mg/kg

Q: Which results are given for `CCOC(=O)COc1ccccc1Cc1ccc(Cl)cc1` [Example VI]?
A: LD50 at 168 h ([1]; po, read-out: LD50): 3000 mg/kg; ED25 [2]: 300 mg/kg; cholesterol lowering effectiveness (in words) [2]: reduced cholesterol lowering effect

Q: Which results are given for `CCOC(=O)C(C)(CC)Oc1ccc(Cc2ccc(Cl)cc2)cc1` (stereo not drawn) [Substance A, ethyl ester of 2methyl-2-4(4chlorobenzyl)-phenoxy-butyric acid, reference compound]?
A: LD50 at 168 h ([1]; po): 8000 mg/kg; ED25 [2]: 12.1 mg/kg

Q: With `CC(C)(Oc1ccccc1Cc1ccc(Cl)cc1)C(=O)OCc1cccnc1` [Example V, 2-methyl-2-[o-(p'-chlorobenzyl)-phenoxy]-propionic acid-(3-oxymethyl-pyridine)-ester hydrochloride] as the molecule, how does the LD50 at 168 h [1, 6] read?
A: The LD50 at 168 h was greater than 3000 mg/kg.

Q: For `CCOC(=O)C(C)(CC)Oc1cccc(Cc2ccc(Cl)cc2)c1` (stereo not drawn) [Example VIII], which ED25 [2] is on record?
A: Its ED25 is 40 mg/kg.

Q: With `CCOC(=O)C(C)(C)Oc1ccc(Cl)cc1` [Substance B, Ethyl p-chlorophenoxyisobutyrate, reference compound] as the molecule, how does the LD50 at 168 h [1, 6] read?
A: Its LD50 at 168 h is 2350 mg/kg.

Q: And the ED25 [2]?
A: The ED25 was 151 mg/kg.

Q: And the “toxicity (in words)” value (mice [5])?
A: Its value is “relatively high toxicity”.
